Data on one molecule can be found in ChEMBL document CHEMBL5247627, “1-Methyl-3-((4-(quinolin-4-yloxy)phenyl)amino)-1H-pyrazole-4-carboxamide derivatives as new rearranged during Transfection (RET) kinase inhibitors capable of suppressing resistant mutants in solvent-front regions” (Eur J Med Chem, 2022).

Molecules are shown by their SMILES. pIC50: −log10 of the molar value. The source made the active and inactive calls. No cut-off for these calls is given here. Bounds are passed on as bounds.

A short description of series [1]: Toxicity in CB17-SCID mouse xenografted with BaF3 cells expressing CCDC6-RET G810C assessed as tolerability measured at 10 to 30 mg/kg, ip qd administered for 12 days. Type of series: organism-based. Conditions: in vivo, 288 h, dose 10-30 mg/kg, time 12 day.
In series [2] the test system is BaF3. Nature of the series: Antiproliferative activity against mouse BaF3 cells expressing wildtype rearranged during transfection kinase-CCDC6 incubated for 74 to 76 hrs by cell counting kit 8 method. Background: Formazan colour is commonly taken as a measure of viable cells.
Series [3] relates to BaF3. As to the kind of experiment: Antiproliferative activity against mouse BaF3 cells incubated for 74 to 76 hrs by cell counting kit 8 method. Type of series: functional, cell-based.
Series [4] has as its system BaF3. Nature of the series: Antiproliferative activity against mouse BaF3 cells expressing rearranged during transfection kinase V804L-G810R incubated for 74 to 76 hrs by cell counting kit 8 method.
Series [5] has as its system BaF3. Nature of the series: Induction of apoptosis in mouse BaF3 cells harbouring CCDC6-RET G810C assessed as necrotic cells measured at 33.3 nM for 48 hrs by Annexin V-FITC staining based Guava easyCyte flow cytometric analysis (reference value: 0.35 %). Type of series: functional. Background: A flow cytometer gives signals particle by particle.
Series [6] has as its system BaF3. As to the kind of experiment: Induction of apoptosis in mouse BaF3 cells harbouring CCDC6-RET G810C assessed as early apoptotic cells measured at 100 nM for 48 hrs by Annexin V-FITC staining based Guava easyCyte flow cytometric analysis (reference value: 6.10 %). Type of series: functional.
The subject of series [7] is BaF3. As to the kind of experiment: Induction of apoptosis in mouse BaF3 cells harbouring CCDC6-RET G810C assessed as late apoptotic cells measured at 100 nM for 48 hrs by Annexin V-FITC staining based Guava easyCyte flow cytometric analysis (reference value: 2.65 %). Type of series: functional.
In series [8] the test system is BaF3. Nature of the series: Induction of apoptosis in mouse BaF3 cells harbouring CCDC6-RET G810C assessed as viable cells measured at 300 nM for 48 hrs by Annexin V-FITC staining based Guava easyCyte flow cytometric analysis (reference value: 90.90 %). Type of series: functional. The note with it: read-out: Activity.
The subject of series [9] is BaF3. Nature of the series: Induction of apoptosis in mouse BaF3 cells harbouring CCDC6-RET G810C assessed as late apoptotic cells measured at 300 nM for 48 hrs by Annexin V-FITC staining based Guava easyCyte flow cytometric analysis (reference value: 2.65 %). Type of series: functional.
The test system of series [10] is BaF3. Nature of the series: Induction of apoptosis in mouse BaF3 cells harbouring CCDC6-RET G810R assessed as viable cells measured at 33.3 nM for 48 hrs by Annexin V-FITC staining based Guava easyCyte flow cytometric analysis (reference value: 89.5 %). Type of series: functional. Conditions: read-out: Activity.
The subject of series [11] is BaF3. As to the kind of experiment: Induction of apoptosis in mouse BaF3 cells harbouring CCDC6-RET G810R assessed as early apoptotic cells measured at 33.3 nM for 48 hrs by Annexin V-FITC staining based Guava easyCyte flow cytometric analysis (reference value: 6.46 %). Type of series: functional.
Series [12] has as its system BaF3. Nature of the series: Induction of apoptosis in mouse BaF3 cells harbouring CCDC6-RET G810R assessed as late apoptotic cells measured at 100 nM for 48 hrs by Annexin V-FITC staining based Guava easyCyte flow cytometric analysis (reference value: 3.4 %). Type of series: functional.
Series [13] has as its system BaF3. Nature of the series: Induction of apoptosis in mouse BaF3 cells harbouring CCDC6-RET G810R assessed as viable cells measured at 300 nM for 48 hrs by Annexin V-FITC staining based Guava easyCyte flow cytometric analysis (reference value: 89.5 %). The note with it: read-out: Activity. Type of series: functional.
For series [14], the system named is BaF3. Nature of the series: Induction of apoptosis in mouse BaF3 cells harbouring CCDC6-RET G810R assessed as early apoptotic cells measured at 300 nM for 48 hrs by Annexin V-FITC staining based Guava easyCyte flow cytometric analysis (reference value: 6.46 %). Type of series: functional.
The subject of series [15] is BaF3. Conditions: Mus musculus, dose 100.0 nM, time 4.0 hrs.
Series [16] has as its system BaF3. Conditions: Mus musculus, CB17-SCID, Tumor/tissue, dose 10-30 mg/kg, route ip, time 13.0 day.

For orientation: pIC50 means the IC50 on a negative log10 scale, so that one unit is a factor of ten. A high value points to a low IC50. Turning to `COc1cc2nccc(Oc3ccc(Nc4nn(C)cc4C(=O)NC45CC6CC(CC(C6)C4)C5)c(F)c3)c2cc1C(N)=O`, the Activity result is reported as “Non-Toxic” in series [1]; 0.28% in the series on BaF3 [5]; 17.19% with BaF3 [6]; 2.39% with BaF3 [7]; 3.08% in the series on BaF3 [9]; 6.47% with BaF3 [11]. The values for the Activity in the series on BaF3 [12] and with BaF3 [14] were 1.8% and 32.67%, respectively. Also, the values for the pIC50 with BaF3 [2], in the series on BaF3 [3] and in the series with BaF3 [4] were 8.25, less than 5.00 and 6.92, respectively. Moreover, the values for the viability at 0.3 µM with BaF3 [8] and in the series with BaF3 [13] were 43.1% and 63.9%, respectively. The viability at 0.0333 µM with BaF3 [10] is 91.1%. The inhibition result in the series on BaF3 [15] and in the series with BaF3 [16] was “Active” each time.
